Source: patent US5578445A, “In vitro method of evaluating the effects of a substance” (priority 1991, dated 1996)

Key:
estrogen receptor [1] = target: T1, estrogen receptor (Homo sapiens, UniProt P03372); test: Cathepsin D secretion, additional set of experiments, ZR 75-1 in 96-well trays, Cath D RIA
T1 sequence (P03372 1-595): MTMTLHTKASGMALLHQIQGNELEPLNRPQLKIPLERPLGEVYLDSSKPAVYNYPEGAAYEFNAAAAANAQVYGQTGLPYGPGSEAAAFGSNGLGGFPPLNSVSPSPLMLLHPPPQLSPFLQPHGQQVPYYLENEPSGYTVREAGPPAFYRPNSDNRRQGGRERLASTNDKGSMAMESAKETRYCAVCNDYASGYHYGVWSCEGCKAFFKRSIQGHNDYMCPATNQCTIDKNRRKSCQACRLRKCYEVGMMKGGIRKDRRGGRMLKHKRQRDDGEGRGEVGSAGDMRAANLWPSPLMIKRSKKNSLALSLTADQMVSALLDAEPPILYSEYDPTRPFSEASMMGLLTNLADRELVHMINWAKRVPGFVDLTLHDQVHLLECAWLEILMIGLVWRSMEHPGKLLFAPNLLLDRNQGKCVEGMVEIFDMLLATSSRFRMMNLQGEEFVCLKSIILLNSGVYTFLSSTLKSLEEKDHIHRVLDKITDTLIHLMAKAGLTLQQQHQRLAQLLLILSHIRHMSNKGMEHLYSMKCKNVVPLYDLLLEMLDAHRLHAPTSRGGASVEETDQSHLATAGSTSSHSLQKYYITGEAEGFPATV
Experimental: (§1) The amount of Cath D secreted into the medium was determined with the aid of a commercial RIA (ELSA-CATD-D from CIS Bio-industries, Gif-sur-Yvette, France).
(§2) Samples of the cells ZR 75-1 and MCF7, respectively, were distributed into plastic petridishes (suitable for the culturing of mammalian cells).
(§3) Samples of the cells ZR 75-1 (4×10^4 cells/well) and MCF7 (2.5×10^4 cells/well), respectively, were distributed in 96-well trays. The cells were distributed in the same medium as used on day 1.
(§4) The wells were washed with 100 μl Coon's medium/well. The first medium was replaced by the second medium (B) without 1% FCS. The following hormone additions were made:
(§5) 48 hours after the hormone addition the number of cells and their morphology were investigated. Medium from each well was transferred to Eppendorf tubes. The possible amount of Cath D in the medium samples was analyzed with the aid of a commercial Cath D RIA (ELSA-CATH-D).

estrogen receptor [2] = target: T1, estrogen receptor; test: Cathepsin D secretion, additional set of experiments, MCF7 in 96-well trays, Cath D RIA
Experimental: as §1, §2, §3, §4, §5

[3] = 10^-8 M LY 117018, presence of 10^-10 M E2

O=C(c1ccc(OCCN2CCCC2)cc1)c1c(-c2ccc(O)cc2)sc2cc(O)ccc12 [LY 117018]
inhibition of the expression of Cath D (estrogen receptor [1]; 10 nM LY 117018 and 0.1 nM E2): inhibited down to same level as in the absence of added hormone
function on Cath D expression (estrogen receptor [1]; [3]): functions as an antagonist
antagonist strength compared with Tamoxifen, Cath D (estrogen receptor [1]; presence of 0.1 nM E2): stronger antagonist than Tamoxifen
influence on the Cath D secretion (estrogen receptor [1]; substance alone, without E2): do not have an influence
inhibition of the expression of Cath D (estrogen receptor [2]; 10 nM LY 117018 and 0.1 nM E2): inhibited down to same level as in the absence of added hormone
function on Cath D expression (estrogen receptor [2]; [3]): functions as an antagonist
antagonist strength compared with Tamoxifen, Cath D (estrogen receptor [2]; presence of 0.1 nM E2): stronger antagonist than Tamoxifen
influence on the Cath D secretion (estrogen receptor [2]; substance alone, without E2): do not have an influence
